Where “and” joins values, the source holds several entries; their conditions need not be identical. Identical values can stand only once. Entries after “also recorded” stand apart in the source; their conditions may differ.
Assays:
human ERβ [1] = molecular target: T1, human ERβ (Homo sapiens, UniProt Q92731); test: ERELUC transient transfection reporter assay, ERβ in HepG2 cells; format: cell-based; conditions: for ERELUC activity in ERβ-expressing HepG2 cells: 5 µM, 24 h, Fig. 1B, result in words
T1 sequence (Q92731 whole entry): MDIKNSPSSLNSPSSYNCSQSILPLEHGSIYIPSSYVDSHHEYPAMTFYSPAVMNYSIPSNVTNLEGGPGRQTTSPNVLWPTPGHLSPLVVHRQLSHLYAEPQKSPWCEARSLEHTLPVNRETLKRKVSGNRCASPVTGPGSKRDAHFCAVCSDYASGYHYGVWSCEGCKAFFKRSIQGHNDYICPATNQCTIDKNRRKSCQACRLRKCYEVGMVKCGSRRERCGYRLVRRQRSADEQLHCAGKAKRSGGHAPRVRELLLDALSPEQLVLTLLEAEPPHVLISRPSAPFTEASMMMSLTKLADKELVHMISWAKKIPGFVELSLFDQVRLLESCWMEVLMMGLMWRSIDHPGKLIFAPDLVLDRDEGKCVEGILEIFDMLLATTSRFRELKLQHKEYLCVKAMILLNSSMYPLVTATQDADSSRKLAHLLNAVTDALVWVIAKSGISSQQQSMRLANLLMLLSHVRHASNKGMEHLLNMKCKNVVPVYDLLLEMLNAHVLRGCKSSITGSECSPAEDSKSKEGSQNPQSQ

human ERβ [2] = molecular target: T1, human ERβ; test: [3H] E2 ligand binding competition; conditions: IC50 for ERβ, competition with 30 nM [3H] E2, Fig. 6B
NRF1 (NRF-1) expression = test: QRT-PCR of NRF1 in ERβ-transfected HepG2 cells; format: cell-based, human; conditions: 10 nM E2 or 5 µM sterol, 24 h, Fig. 5B
[3] = system: MCF-7 human breast cancer cells; test: Cell proliferation BrdU assay; format: cell-based; conditions: for MCF-7 cell proliferation: 48 h BrdU, 10 nM E2, 5 µM sterols, Fig. 7
hERα [4] = molecular target: T2, hERα (Homo sapiens, UniProt P03372); test: [3H] E2 ligand binding competition
T2 sequence (P03372 whole entry): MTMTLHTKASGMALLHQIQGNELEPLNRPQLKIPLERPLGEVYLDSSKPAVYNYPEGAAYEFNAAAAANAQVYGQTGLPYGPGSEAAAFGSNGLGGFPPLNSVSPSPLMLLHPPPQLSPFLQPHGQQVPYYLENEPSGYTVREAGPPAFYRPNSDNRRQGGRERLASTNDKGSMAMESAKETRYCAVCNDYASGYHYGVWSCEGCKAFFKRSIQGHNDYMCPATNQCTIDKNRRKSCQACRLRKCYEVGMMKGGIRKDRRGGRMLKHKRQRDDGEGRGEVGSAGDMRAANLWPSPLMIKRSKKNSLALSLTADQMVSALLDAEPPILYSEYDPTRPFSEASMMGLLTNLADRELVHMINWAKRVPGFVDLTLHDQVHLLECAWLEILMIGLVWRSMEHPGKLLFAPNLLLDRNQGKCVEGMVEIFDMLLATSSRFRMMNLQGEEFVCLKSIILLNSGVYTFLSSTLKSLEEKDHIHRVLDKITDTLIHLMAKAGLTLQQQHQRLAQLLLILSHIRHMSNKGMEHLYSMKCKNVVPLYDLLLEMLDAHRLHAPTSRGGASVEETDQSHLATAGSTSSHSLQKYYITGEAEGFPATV

hERα [5] = molecular target: T2, hERα; test: ERELUC transient transfection reporter assay, ERα in HEK-293 cells; format: cell-based
[6] = system: TFF1 (pS2), PGR (PR), CTSD (cathepsin D) transcription; test: QRT-PCR of endogenous ER-target genes in ERα-transfected HEK-293 cells; format: cell-based, human; conditions: 10 nM E2 or 5 µM sterol, 24 h, Fig. 5A
MCF-7 cells = conditions: cited from earlier work; for proliferation of MCF-7 cells: 1–10 µM concentrations
hERα [7] = molecular target: T2, hERα; format: cell-based; conditions: Supplemental Fig. 1
[8] = MEK1/2 inhibitor, data not shown

C[C@]12CCC(=O)CC1=CC[C@@H]1[C@@H]2CC[C@]2(C)C(=O)CC[C@@H]12 [ADIONE, androst-5-ene-3,17-dione]
ERELUC activity in ERβ-expressing HepG2 cells (human ERβ [1]): significantly induced
ERELUC activity in ERβ-expressing HepG2 cells (human ERβ [1]; listed as androst-5-ene-3,17-dione): effective in activating
IC50 (human ERβ [2]): 50 µM and ~50 µM
NRF-1 mRNA expression (NRF1 (NRF-1) expression): did not increase
MCF-7 cell proliferation [3]: increased

CC(O)(CS(=O)(=O)c1ccc(F)cc1)C(=O)Nc1ccc(C#N)c(C(F)(F)F)c1 (stereo not shown) [Bicalutamide, reference compound]
effect on DHEA-, 7-oxo-DHEA-, ADIOL- and ADIONE-induced proliferation ([3]; 10 µM bicalutamide, pretreatment 4 h, also blocked DHT-induced proliferation): inhibited

C[C@]12CC[C@H](OS(=O)(=O)O)CC1=CC[C@@H]1[C@@H]2CC[C@]2(C)C(=O)CC[C@@H]12 [DHEA-S, DHEA 3β-sulfate]
IC50 (hERα [4]; read-out: IC50 for ERα, competition with 30 nM [3H] E2, Fig. 6A): 100 to 500 µM
induction of ERELUC activity via ERα (hERα [5]; 5 µM, 24 h, HEK-293, Fig. 1B): around 9 fold
induction of ERELUC expression with ERα (hERα [5]; concentration-response, at higher concentrations, HEK-293, Fig. 2A): ~ 2 fold
CTSD (cathepsin D) expression [6]: increased
PGR (PR) expression [6]: increased
TFF1 (pS2) expression [6]: increased
MCF-7 cell proliferation (MCF-7 cells; less than E2): increased cell proliferation
MCF-7 cell proliferation [3]: increased

C[C@]12CCC(=O)C[C@@H]1CC[C@@H]1[C@@H]2CC[C@]2(C)[C@@H](O)CC[C@@H]12 [DHT, dihydrotestosterone, reference compound]
proliferation of MCF-7 cells (MCF-7 cells): stimulated proliferation
MCF-7 cell proliferation [3]: concentration-dependent increase

C[C@]12CC[C@@H]3c4ccc(O)cc4CC[C@H]3[C@@H]1CC[C@@H]2O [E2, 17β-estradiol, reference compound]
CTSD (cathepsin D) expression [6]: increased
PGR (PR) expression [6]: increased
TFF1 (pS2) expression [6]: increased
NRF-1 mRNA expression (NRF1 (NRF-1) expression): statistically significant increase; also recorded: low induction

C[C@]12CC[C@@H]3c4ccc(O)cc4C[C@@H](CCCCCCCCC[S+]([O-])CCCC(F)(F)C(F)(F)F)[C@H]3[C@@H]1CC[C@@H]2O (stereo partly shown) [ICI 182,780, reference compound]
effect on ERβ-mediated induction of ERELUC by E2, DHEA, 7-oxo-DHEA, ADIOL and ADIONE (human ERβ [1]; 1 µM ICI, 100 nM 4-OHT, 1 µM R,R-THC, 5 µM sterol, Fig. 3B): inhibited
effect on ERα-mediated induction of ERELUC by E2, DHEA, DHEA-S and ADIOL (hERα [5]; 1 µM ICI, 100 nM 4-OHT, 1 µM R,R-THC, 5 µM sterol, Fig. 3A): inhibited
effect on the proliferative activity of 10 nM DHEA in MCF-7 cells (MCF-7 cells): lack of inhibition
effect on E2-induced stimulation of MCF-7 cell proliferation ([3]; 100 nM ICI 182,780, pretreatment 6 h): inhibited

COc1cccc(-c2cc(=O)c3ccccc3o2)c1N [PD998059, reference compound]
effect on DHEA or metabolite-induced ERELUC activity, ERβ (human ERβ [1]; [8]): did not block
effect on DHEA or metabolite-induced ERELUC activity, ERα (hERα [5]; [8]): did not block

C[C@]12CCC(=O)C=C1CC[C@@H]1[C@@H]2CC[C@]2(C)C(=O)CC[C@@H]12 [androst-4-ene-3,17-dione]
ERELUC activity in ERβ-expressing HepG2 cells (human ERβ [1]): effective in activating

C=C1C[C@@H]2[C@H](CC[C@]3(C)C(=O)CC[C@@H]23)[C@@]2(C)C=CC(=O)C=C12 [exemestane, reference compound]
effect on ADIONE activation of ERβ (human ERβ [1]; 100 nM exemestane, HepG2, Fig. 4B): no effect
inhibition at 0.1 µM (human ERβ [1]; HepG2, read-out: inhibition of DHEA-, ADIOL- and 7-oxo-DHEA-induced ERELUC reporter activity): 20 to 30%
effect on E2, DHEA or ADIOL induced ERELUC activity in ERα-transfected cells (hERα [5]; 100 nM exemestane, HEK-293, Fig. 4A): did not significantly inhibit
effect on proliferation with ADIOL or ADIONE ([3]; 100 nM exemestane, 5 µM sterol, 48 h): no inhibitory activity

Clc1ccc(COC(Cn2ccnc2)c2ccc(Cl)cc2Cl)c(Cl)c1 (stereo not shown) [miconazole, reference compound]
effect on ERβ activation of ERELUC in response to E2, ADIOL, DHEA, ADIONE and 7-oxo-DHEA (human ERβ [1]; 5 µM miconazole, HepG2, Fig. 4B): reduced
inhibition of [3H] E2 binding to recombinant human ERα (hERα [4]; 100 µM competitor, Supplemental Fig. 2): 15%
ERα binding / competition with E2 (hERα [4]; result in words): did not compete
effect on DHEA-stimulated ERα transcriptional activity (hERα [5]; 5 µM miconazole, HEK-293): did not inhibit
effect on ERα activation of ERELUC in response to E2 and ADIOL (hERα [5]; 5 µM miconazole, HEK-293, Fig. 4A): reduced
effect on E2-induced ERα-ERE-LUC activity (hERα [7]; 10 nM E2, miconazole pretreatment): inhibited
increase of basal ERE-luciferase reporter activity (hERα [7]; miconazole pretreatment): ~ 0.8 fold
effect on MCF-7 cell proliferation induced by E2, DHEA, ADIOL and ADIONE ([3]; 5 µM miconazole, 48 h): inhibited

C[C@]12CC[C@H]3[C@@H](CCC4=CC(=O)CC[C@@]43C)[C@@H]1CC[C@@H]2O [testosterone]
proliferation of MCF-7 cells (MCF-7 cells): stimulated proliferation
